Test systems include A498 renal; HCT-116 colon; HCT-15 colon; MALME-3M melanoma; MOLT-4 leukemia; NCI/ADR-RES ovarian; OVCAR-5 ovarian; SK-MEL-5 melanoma; T-47D breast; U251 CNS.
What all share (experiment): inhibition of tumour cell growth, NCI panel, 48 h

Structures are written as SMILES.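 Interpolation was linear, between the two tested concentrations surrounding the appropriate level; five concentrations were tested over 48 hours in 96-well plates. GI50 marks 50% less growth. TGI denotes the concentration required for complete inhibition of growth.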

With `CCN1CCN(CCC(=O)Nc2cccc(-n3cc(-c4ccncc4)c(-c4ccc(Cl)c(OC)c4)n3)c2)CC1`, the GI50 was 0.676 µM in the test with A498 renal; 0.374 µM in the test on HCT-116 colon; 0.491 µM in the test with HCT-15 colon; 0.765 µM with MALME-3M melanoma; 0.661 µM with MOLT-4 leukemia; 1.27 µM in the test with NCI/ADR-RES ovarian. The GI50 was 1.42 µM in the test on OVCAR-5 ovarian, 0.507 µM in the test on SK-MEL-5 melanoma, 0.841 µM in the test with T-47D breast and 0.484 µM in the test on U251 CNS. Also, the TGI was found to be 2.74 µM in the test with A498 renal; 1.62 µM in the test on HCT-116 colon; 2.16 µM in the test with HCT-15 colon; 2.35 µM in the test on MALME-3M melanoma; 5.76 µM in the test on MOLT-4 leukemia; 4.29 µM with NCI/ADR-RES ovarian. Further, the TGI in the test on OVCAR-5 ovarian stood at 4.84 µM; in the test on SK-MEL-5 melanoma it was 1.83 µM; with T-47D breast, 4.7 µM; with U251 CNS it was 1.76 µM.
As for `C[N+]1([O-])C2CCC1CC(OC(=O)C(CO)c1ccccc1)C2` (stereo not given), the TGI with A498 renal, with HCT-116 colon, with HCT-15 colon, in the test on MALME-3M melanoma, in the test on MOLT-4 leukemia and with NCI/ADR-RES ovarian was greater than 100 µM in each case. Moreover, the TGI in the test on OVCAR-5 ovarian, in the test with SK-MEL-5 melanoma, in the test on T-47D breast and with U251 CNS was greater than 100 µM throughout.
With `O=C(/C=C\c1ccc(O)c(O)c1)c1ccccc1O`, the GI50 is 16 µM with A498 renal; 11.9 µM in the test on HCT-116 colon; 2.52 µM with HCT-15 colon; 11.4 µM in the test with MALME-3M melanoma; 1.89 µM in the test on MOLT-4 leukemia; 10.8 µM with NCI/ADR-RES ovarian. Further, the GI50 is 18 µM in the test on OVCAR-5 ovarian, 11.4 µM with SK-MEL-5 melanoma, 5.57 µM in the test with T-47D breast and 7.95 µM with U251 CNS. The TGI in the test on A498 renal turned out to be 32.8 µM; in the test with HCT-116 colon, 24.9 µM; in the test with HCT-15 colon, 19.1 µM; in the test with MALME-3M melanoma it was 32.5 µM; in the test on MOLT-4 leukemia, 97.5 µM; in the test on NCI/ADR-RES ovarian, 36.1 µM. The TGI with OVCAR-5 ovarian was found to be 40.4 µM; in the test with SK-MEL-5 melanoma, 28.4 µM; in the test with T-47D breast it was 45.5 µM; with U251 CNS it was 33.1 µM.
For `COc1ccc(C2=NN(C(N)=S)C(c3ccc4c(c3)OCO4)C2)cc1` (stereo not given), the GI50 in the test with A498 renal was 2.24 µM; with HCT-116 colon, 2.96 µM; in the test with HCT-15 colon, 2.88 µM; with MALME-3M melanoma, 3.62 µM; with MOLT-4 leukemia, 3.02 µM; in the test with NCI/ADR-RES ovarian, 2.9 µM. Also, the GI50 is 2.79 µM in the test with OVCAR-5 ovarian, 2.47 µM with SK-MEL-5 melanoma, 3.22 µM in the test on T-47D breast and 3.05 µM in the test on U251 CNS. Also, the TGI in the test with A498 renal is 9.07 µM; in the test on HCT-116 colon it was 22.9 µM; in the test on HCT-15 colon, greater than 100 µM; with MALME-3M melanoma, 43.9 µM; in the test on MOLT-4 leukemia, 34.5 µM; with NCI/ADR-RES ovarian, 12.6 µM. Besides, the TGI in the test with OVCAR-5 ovarian was 21.9 µM; in the test with SK-MEL-5 melanoma it was 8.41 µM; in the test on T-47D breast it was 41 µM; with U251 CNS, 19.6 µM.
Turning to `CNC(=O)Oc1cc(C(C)C)ccc1Sc1ccc(C(C)C)cc1OC(=O)NC`, the GI50 with A498 renal is 12 µM; in the test with HCT-116 colon, 2.68 µM; with HCT-15 colon, 1.95 µM; in the test with MALME-3M melanoma it was 4.75 µM; in the test on MOLT-4 leukemia, 2.96 µM; in the test with NCI/ADR-RES ovarian it was 3.9 µM. Further, the GI50 with OVCAR-5 ovarian is 11.4 µM; with SK-MEL-5 melanoma it was 2.5 µM; in the test on T-47D breast, 10.2 µM; in the test on U251 CNS it was 3.5 µM. The TGI turned out to be 25 µM with A498 renal; 15.2 µM in the test on HCT-116 colon; 16.1 µM in the test on HCT-15 colon; 20.5 µM in the test on MALME-3M melanoma; 20.1 µM with MOLT-4 leukemia; 18.6 µM in the test on NCI/ADR-RES ovarian. The TGI turned out to be 25.7 µM with OVCAR-5 ovarian, 11.8 µM in the test on SK-MEL-5 melanoma, 25.9 µM in the test with T-47D breast and 15.6 µM in the test with U251 CNS.
`C/C(=C\C(=O)O[C@H]1[C@@H]2[C@H](C)CC[C@H]2[C@]2(C)O[C@@]1(C1CCCCC1)C[C@H]2OC(=O)CO)c1ccccc1`: the GI50 in the test on A498 renal is 0.0164 µM; in the test on HCT-116 colon, 6.18 µM; in the test on HCT-15 colon it was 6.81 µM; in the test with MALME-3M melanoma, 7.25 µM; in the test with MOLT-4 leukemia it was 6.42 µM; in the test on NCI/ADR-RES ovarian it was 0.348 µM. For the same compound, the GI50 is 7 µM in the test on OVCAR-5 ovarian, 6.45 µM with SK-MEL-5 melanoma, 5.44 µM with T-47D breast and 6.02 µM in the test on U251 CNS. The TGI in the test with A498 renal came to 0.114 µM; in the test on HCT-116 colon it was 12 µM; with HCT-15 colon, 13 µM; with MALME-3M melanoma, 13.5 µM; in the test on MOLT-4 leukemia, 13.6 µM; in the test with NCI/ADR-RES ovarian, 7.49 µM. Further, the TGI in the test on OVCAR-5 ovarian amounted to 12.9 µM; in the test on SK-MEL-5 melanoma it was 11.9 µM; in the test on T-47D breast, 12.1 µM; with U251 CNS, 11.5 µM.
